Patent US12492188B2, “1H-benzo[D]imidazole derivatives as TLR9 inhibitors for the treatment of fibrosis” (BRISTOL-MYERS SQUIBB COMPANY, priority 2020, dated 2025)
Read-outs that look alike come from different tables or passages of the source.

Experiments:
Format in all cases: cell-based
human TLR9 = molecular target: T1, human TLR9 (Homo sapiens, UniProt Q9NR96); test: TLR9 inhibition reporter assay (HEK-Blue cells, secreted embryonic alkaline phosphatase reporter)
T1 construct: host or cells: HEK-Blue cells (HEK293-derived reporter line)
T1 sequence (Q9NR96 26-1032): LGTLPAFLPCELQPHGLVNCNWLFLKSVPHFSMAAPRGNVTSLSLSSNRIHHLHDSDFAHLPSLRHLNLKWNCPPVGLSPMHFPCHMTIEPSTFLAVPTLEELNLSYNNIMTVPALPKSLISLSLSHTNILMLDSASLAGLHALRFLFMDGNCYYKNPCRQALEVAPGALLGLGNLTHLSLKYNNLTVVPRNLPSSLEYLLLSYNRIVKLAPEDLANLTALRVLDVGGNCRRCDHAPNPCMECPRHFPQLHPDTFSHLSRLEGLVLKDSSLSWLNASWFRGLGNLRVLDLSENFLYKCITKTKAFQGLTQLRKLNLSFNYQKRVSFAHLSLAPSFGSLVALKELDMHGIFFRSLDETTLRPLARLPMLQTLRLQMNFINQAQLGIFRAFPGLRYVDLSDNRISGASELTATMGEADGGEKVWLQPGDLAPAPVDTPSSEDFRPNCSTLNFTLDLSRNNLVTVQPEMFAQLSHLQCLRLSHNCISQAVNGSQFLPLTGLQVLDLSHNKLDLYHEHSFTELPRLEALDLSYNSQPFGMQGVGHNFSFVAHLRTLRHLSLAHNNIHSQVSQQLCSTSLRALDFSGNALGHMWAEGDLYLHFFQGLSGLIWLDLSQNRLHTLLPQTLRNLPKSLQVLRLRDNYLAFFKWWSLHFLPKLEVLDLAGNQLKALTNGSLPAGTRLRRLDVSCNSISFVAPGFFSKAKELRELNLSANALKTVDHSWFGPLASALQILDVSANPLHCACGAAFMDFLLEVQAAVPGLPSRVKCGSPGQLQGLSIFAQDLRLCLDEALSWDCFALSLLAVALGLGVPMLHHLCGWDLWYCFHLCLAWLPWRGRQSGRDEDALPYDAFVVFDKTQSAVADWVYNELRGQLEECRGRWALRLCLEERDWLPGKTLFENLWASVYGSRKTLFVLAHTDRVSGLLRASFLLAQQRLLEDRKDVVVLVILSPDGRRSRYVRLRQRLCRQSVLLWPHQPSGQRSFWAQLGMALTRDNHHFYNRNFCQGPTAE
Summary of the method: (§1)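 Cells seeded at 15000 (TLR7), 20,000 (TLR8) or 25,000 (TLR9) per well; compound 0.05 nM–50 μM, 30 min RT pre-incubation. Agonists: gardiquimod 7.5 μM, R848 15.9 μM, ODN2006 5 nM respectively. 22 h, 37 °C; SEAP via HEK-Blue Detection; % inhibition vs agonist+DMSO and known-inhibitor wells.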

human TLR7 = molecular target: T2, human TLR7 (Homo sapiens, UniProt Q9NYK1); test: TLR7 inhibition reporter assay (HEK-Blue cells, secreted embryonic alkaline phosphatase reporter); details: HEK-Blue cells overexpressing human TLR7, stimulated with gardiquimod 7.5 μM; read-out: TLR 7 IC50
T2 construct: host or cells: HEK-Blue cells (HEK293-derived reporter line)
T2 sequence (Q9NYK1 27-1049): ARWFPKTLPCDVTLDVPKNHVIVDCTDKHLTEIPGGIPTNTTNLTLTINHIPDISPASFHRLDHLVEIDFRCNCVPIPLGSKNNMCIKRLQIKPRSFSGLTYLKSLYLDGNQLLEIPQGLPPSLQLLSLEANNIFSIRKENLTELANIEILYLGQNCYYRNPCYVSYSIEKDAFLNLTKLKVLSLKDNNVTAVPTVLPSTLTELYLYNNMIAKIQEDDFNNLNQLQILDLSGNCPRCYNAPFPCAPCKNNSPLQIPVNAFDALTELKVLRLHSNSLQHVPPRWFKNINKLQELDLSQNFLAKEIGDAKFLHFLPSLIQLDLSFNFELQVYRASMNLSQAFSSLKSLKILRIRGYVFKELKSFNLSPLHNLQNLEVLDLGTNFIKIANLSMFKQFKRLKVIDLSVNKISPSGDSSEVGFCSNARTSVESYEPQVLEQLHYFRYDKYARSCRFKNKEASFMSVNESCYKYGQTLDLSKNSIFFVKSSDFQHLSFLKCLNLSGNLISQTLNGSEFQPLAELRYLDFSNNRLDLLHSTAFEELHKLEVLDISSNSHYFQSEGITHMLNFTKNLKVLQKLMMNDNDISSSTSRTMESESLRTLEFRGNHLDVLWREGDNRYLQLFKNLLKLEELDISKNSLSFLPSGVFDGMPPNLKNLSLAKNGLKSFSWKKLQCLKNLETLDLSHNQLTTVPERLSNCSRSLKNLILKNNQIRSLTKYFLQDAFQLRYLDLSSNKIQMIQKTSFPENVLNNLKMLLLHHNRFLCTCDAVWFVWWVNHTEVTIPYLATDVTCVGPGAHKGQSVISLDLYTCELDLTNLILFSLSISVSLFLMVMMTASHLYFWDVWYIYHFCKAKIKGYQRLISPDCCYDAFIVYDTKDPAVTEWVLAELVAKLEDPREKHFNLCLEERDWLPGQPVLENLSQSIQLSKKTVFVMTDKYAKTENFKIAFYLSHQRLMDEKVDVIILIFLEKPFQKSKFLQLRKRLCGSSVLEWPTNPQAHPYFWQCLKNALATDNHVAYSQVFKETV
Summary of the method: as §1

human TLR8 = molecular target: T3, human TLR8 (Homo sapiens, UniProt Q9NR97); test: TLR8 inhibition reporter assay (HEK-Blue cells, secreted embryonic alkaline phosphatase reporter); details: HEK-Blue cells overexpressing human TLR8, stimulated with R848 15.9 μM; read-out: TLR 8 IC50
T3 construct: host or cells: HEK-Blue cells (HEK293-derived reporter line)
T3 sequence (Q9NR97 27-1041): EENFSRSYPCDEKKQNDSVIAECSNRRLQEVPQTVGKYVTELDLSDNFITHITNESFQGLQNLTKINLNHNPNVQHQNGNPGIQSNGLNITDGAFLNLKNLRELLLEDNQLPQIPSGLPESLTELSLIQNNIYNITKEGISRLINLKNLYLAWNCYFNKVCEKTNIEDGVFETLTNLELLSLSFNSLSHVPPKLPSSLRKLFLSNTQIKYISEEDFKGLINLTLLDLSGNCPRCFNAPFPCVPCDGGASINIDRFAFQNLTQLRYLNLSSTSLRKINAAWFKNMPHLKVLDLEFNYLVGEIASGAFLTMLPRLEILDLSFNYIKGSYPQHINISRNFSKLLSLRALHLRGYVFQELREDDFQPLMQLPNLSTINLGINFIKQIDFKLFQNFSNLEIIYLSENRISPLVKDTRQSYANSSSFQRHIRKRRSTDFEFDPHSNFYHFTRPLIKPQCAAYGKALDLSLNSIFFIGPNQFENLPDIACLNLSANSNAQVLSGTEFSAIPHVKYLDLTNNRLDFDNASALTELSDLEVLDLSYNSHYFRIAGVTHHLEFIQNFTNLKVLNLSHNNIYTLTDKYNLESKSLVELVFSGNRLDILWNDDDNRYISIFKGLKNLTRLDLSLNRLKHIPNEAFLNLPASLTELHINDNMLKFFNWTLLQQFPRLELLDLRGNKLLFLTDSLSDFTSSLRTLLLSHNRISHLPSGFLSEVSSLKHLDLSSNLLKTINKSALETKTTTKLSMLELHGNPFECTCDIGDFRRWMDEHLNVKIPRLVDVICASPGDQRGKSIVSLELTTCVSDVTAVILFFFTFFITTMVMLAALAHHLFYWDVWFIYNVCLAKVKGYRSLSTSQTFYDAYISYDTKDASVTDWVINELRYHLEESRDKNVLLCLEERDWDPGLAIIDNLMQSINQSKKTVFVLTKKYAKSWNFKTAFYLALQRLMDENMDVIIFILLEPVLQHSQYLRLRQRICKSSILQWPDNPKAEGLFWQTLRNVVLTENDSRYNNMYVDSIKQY
Summary of the method: as §1

[1] = HEK-Blue cells overexpressing human TLR9, stimulated with ODN2006 5 nM, 22 hour incubation, reporter readout
[2] = HEK-Blue cells overexpressing human TLR9, stimulated with ODN2006 5 nM, read-out: TLR 9 IC50
[3] = HEK-Blue human TLR9 reporter cells

Compound	IC50 (human TLR9; [1])	IC50 (human TLR9; [2])	IC50 (human TLR7)	IC50 (human TLR8)	IC50 (human TLR9; [3])	IC50 (human TLR9)
COc1ccc(-c2nc3c(C)cc(C4CCN(C5CC6(C5)CN(C5CCC5)C6)CC4)cc3n2C)cc1OC [Example 49, 6-(1-(2-cyclobutyl-2-azaspiro[3.3]heptan-6-yl)piperidin-4-yl)-2-(3,4-dimethoxyphenyl)-1,4-dimethyl-1H-benzo[d]imidazole]	65 nM	65 nM	5800 nM	> 50000 nM		
COc1ccc(-c2nc3ccc(C4CCN(C5CCN(CC(C)C)CC5)CC4)cc3n2C(C)C)cc1OC [Example 30, 2-(3,4-dimethoxyphenyl)-6-(1′-isobutyl-[1,4′-bipiperidin]-4-yl)-1-isopropyl-1H-benzo[d]imidazole]	250 nM	254 nM	9800 nM	> 50000 nM		
Cn1c(-c2ccc(S(C)(=O)=O)cc2)nc2cc(C3CCN(C4CCN(CC5COC5)CC4)CC3)cc(F)c21 [Example 204, 7-fluoro-1-methyl-2-(4-(methylsulfonyl)phenyl)-5-(1′-(oxetan-3-ylmethyl)-[1,4′-bipiperidin]-4-yl)-1H-benzo[d]imidazole]		781 nM	> 50000 nM	> 50000 nM		780 nM
COc1cc(-c2nc3c(C)cc(C4CCN(C5CC6CCC(C5)N6C5CC5)CC4)cc3n2C)cn2ncnc12 (centres unmarked) [Example 354, 6-(6-(1-(8-cyclopropyl-8-azabicyclo[3.2.1]octan-3-yl)piperidin-4-yl)-1,4-dimethyl-1H-benzo[d]imidazol-2-yl)-8-methoxy-[1,2,4]triazolo[1,5-a]pyridine]		85 nM	7500 nM	700 nM	85 nM	
CCN(C)C1CCN(c2ccc(-c3cc(C)c4nc(-c5ccc(S(C)(=O)=O)cc5)n(C)c4c3)cc2)CC1 [Example 386, 1-(4-(1,4-dimethyl-2-(4-(methylsulfonyl)phenyl)-1H-benzo[d]imidazol-6-yl)phenyl)-N-ethyl-N-methylpiperidin-4-amine]	270 nM	267 nM	1700 nM	4400 nM		

Further lines, results first:

IC50 (human TLR9; [1])	IC50 (human TLR9; [2])	IC50 (human TLR7)	IC50 (human TLR8)	IC50 (human TLR9; [3])	IC50 (human TLR9)	Compound
390 nM	387 nM	35100 nM	> 50000 nM			CC(C)N1C2CCC1CC(N1CCC(c3cc(F)c4nc(-c5ccc(S(C)(=O)=O)cc5)n(C)c4c3)CC1)C2 (single isomer, unassigned) [Example 106, 4-fluoro-6-(1-(8-isopropyl-8-azabicyclo[3.2.1]octan-3-yl)piperidin-4-yl)-1-methyl-2-(4-(methylsulfonyl)phenyl)-1H-benzo[d]imidazole]
	37 nM	2200 nM	16700 nM	37 nM		Cc1cc(C2CCN(C3CC4CCC(C3)N4CC3CC3)CC2)cc2c1nc(-c1ccc(S(C)(=O)=O)c(F)c1)n2C (centres unmarked) [Example 341, 6-(1-(8-(cyclopropylmethyl)-8-azabicyclo[3.2.1]octan-3-yl)piperidin-4-yl)-2-(3-fluoro-4-(methylsulfonyl)phenyl)-1,4-dimethyl-1H-benzo[d]imidazole]
	32 nM	300 nM	7900 nM	32 nM		COc1cc(-c2nc3c(C)cc(C4CCN(C5CC6CCC(C5)N6C(C)C)CC4)cc3n2C)cn2ncnc12 (centres unmarked) [Example 357, 6-(6-(1-(8-isopropyl-8-azabicyclo[3.2.1]octan-3-yl)piperidin-4-yl)-1,4-dimethyl-1H-benzo[d]imidazol-2-yl)-8-methoxy-[1,2,4]triazolo[1,5-a]pyridine]
	58 nM	> 50000 nM	> 50000 nM		58 nM	Cn1c(-c2ccc(S(C)(=O)=O)cc2)nc2cc(F)c(C3CCN(C4CC5CCC(C4)N5CC4CC4)CC3)cc21 (centres unmarked) [Example 231, 6-(1-(8-(cyclopropylmethyl)-8-azabicyclo[3.2.1]octan-3-yl)piperidin-4-yl)-5-fluoro-1-methyl-2-(4-(methylsulfonyl)phenyl)-1H-benzo[d]imidazole]
	12.3 nM	14300 nM	> 25000 nM		120 nM	Cc1cc(C2CCN(C3CC4CCC(C3)N4C3CCC3)CC2)cc2c1nc(-c1ccc(S(C)(=O)=O)cc1)n2C (single isomer, unassigned) [Example 153, 6-(1-(8-cyclobutyl-8-azabicyclo[3.2.1]octan-3-yl)piperidin-4-yl)-1,4-dimethyl-2-(4-(methylsulfonyl)phenyl)-1H-benzo[d]imidazole]
	599 nM	6200 nM	> 25000 nM		600 nM	COCCN1C2CCC1CC(N1CCC(c3cc(C)c4nc(-c5ccc(S(C)(=O)=O)cc5)n(C)c4c3)CC1)C2 (single isomer, unassigned) [Example 163, 6-(1-(8-(2-methoxyethyl)-8-azabicyclo[3.2.1]octan-3-yl)piperidin-4-yl)-1,4-dimethyl-2-(4-(methylsulfonyl)phenyl)-1H-benzo[d]imidazole]
